Assay [1] has as its system SKBR3 Cells. Description: SKBR3 Cell Viability Assay. The format is cell-based. To be noted: CellTiter Glo luminescence, read-out: MCL-1 CV SKBR3 EC50. How it is done:
SKBR3 Cell Viability Assay Materials
SKBR3 Cells (ATCC HTB-30) were obtained from ATCC (Manassas, Va.) and cultured in McCoy 5A's medium (ATCC 30-2007)+10% fetal bovine serum (SH30071.03, HyClone, Pittsburgh, Pa.) plus 1× Penicillin-Streptomycin L-glutamine (Corning 30-009-C1, Corning, N.Y.)).
The cell viability assay was conducted in a 384-well tissue culture plate (Grenier 781086, Monroe, N.C.) in a total volume of 70 μL. Test compounds were prepared in 1,000×, serially diluted, and pre-spotted into 384-well tissue culture plate by Echo 555 Liquid Handler (Labcyte Inc., San Jose, Calif.). Seventy pi of 6,000 SKBR3 cells were dispensed into each well of the plate and incubated at 37° C. with 5% CO2 for 72 hours. At the end of incubation, 2× CellTiter Glo (CTG) reagents (1 part buffer with 2 parts substrate) (Promega, Madison, Wis.) were prepared, and the plate and the reagent were equilibrated to room temperature for 30 minutes. CTG reagent was added to each plate by Biomek FX at 20 μL/well with 5 times pipetting and mixing to induce cell lysis. Luminescence was read by Envision multimode reader (PerkinElmer). […] Percent inhibition was calculated as followed: % Inhibition=100%*(Well−Neg)/(Pos−Neg) Neg, negative control, DMSO Pos, positive control, 10 μM Puromycin

In assay [2] the target is Recombinant human MCL-1 protein (Homo sapiens (Human), UniProt Q07820). As to the kind of experiment: MCL-1/Bim Binding AlphaLISA Assay. To be noted: 6×His-Mcl-1 (171-327) and biotinylated-Bim peptide (51-76). How it is done:
MCL-1/Bim Binding AlphaLISA Assay.
Inhibition of the MCL-1 and Bim interaction was measured in the following AlphaLISA assay.
Recombinant human MCL-1 protein (C-terminal 6×His Tagged Mcl-1 containing residues 171-327) was generated at Gilead Sciences, Inc. (Foster City, Calif.). A biotinylated peptide derived from human Bim (residues 51-76) was purchased from CPC Scientific (Sunnyvale, Calif.). (CPC 834113). AlphaLISA anti-6His-acceptor beads (AL128R), AlphaScreen Streptavidin donor beads (6760002B), and Proxiplate-384 Plus (6008289) were purchased from PerkinElmer.
The AlphaLISA assay was performed in a 384-well Proxiplate in a total volume of 40 μL. The reaction mixture contained 0.0625 nM 6×His-Mcl-1 (171-327), 0.0625 nM biotinylated-Bim peptide, 10 μg/mL AlphaLISA anti-6×His-AlphaLISA acceptor beads, 40 μg/mL AlphaScreen streptavidin donor beads, and serially diluted test compounds in the binding buffer (20 mM Hepes, pH 7.5 (Teknova H1035); 150 mM NaCl (Promega V4221); 0.002% Brij 35 (Thermo Scientific 20150); 1 mM Dithiothreitol (DTT) Solution (Affymetrix 70726); 0.01% BSA (BioLabs B9000S)). 1,000× test compounds were pre-spotted onto 384-well Proxiplate (Labcyte Echo) by Echo 555 Liquid Handler (Labcyte Inc., San Jose, Calif.) followed by incubation of 5 μl Mcl-1 (171-327) for 1 hour. Then 5 μL Bim (51-76) was added and incubated for 2 hours. Five μL AlphaLISA anti-6His-AlphaLISA acceptor beads were then added for 1 hour followed by addition of 5 μL AlphaScreen streptavidin donor beads for 1 hour. The reaction plates were then read on an Envision multimode reader (PerkinElmer) using AlphaScreen settings. […] Percent inhibition was calculated as shown below: % Inhibition=100%*(Well−Neg)/(Pos−Neg) Neg: negative control, DMSO Pos: positive control, no Mcl-1 protein, no biotinylated-Bim peptide

Like-named read-outs stand apart in the source and are kept apart here.

Experimental findings from patent US11643400B2, “MCL-1 inhibitors” (Gilead Sciences, Inc., priority 2018, dated 2023) are described below.

Chain of Recombinant human MCL-1 protein (Q07820 171-327): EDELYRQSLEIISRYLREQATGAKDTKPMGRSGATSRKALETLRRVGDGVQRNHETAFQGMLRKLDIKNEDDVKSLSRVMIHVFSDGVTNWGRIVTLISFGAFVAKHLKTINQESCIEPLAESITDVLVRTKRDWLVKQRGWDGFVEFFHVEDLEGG

As for `CCN(CC)C(=O)OC1CN(C(=O)N[S@@]2(=O)=NC(=O)c3ccc4c(c3)N(C[C@@H]3CC[C@H]3[C@@H](OC)/C=C/C[C@H](C)C2)C[C@@]2(CCCc3cc(Cl)ccc32)CO4)C1` [Example 226], the EC50 in assay [1] (72 hours) amounted to 71.3 nM.
The same measure, in the same setting: the same measure for `CO[C@H]1/C=C/CCC[S@@](=O)(NC(=O)c2cc3ccccc3n2C)=NC(=O)c2ccc3c(c2)N(C[C@@H]2CC[C@H]21)C[C@@]1(CCCc2cc(Cl)ccc21)CO3` [Example 98]: 2190 nM; for `CO[C@H]1/C=C/C[C@H](C)C[S@@](=O)(NC(=O)N2CC(C(C)(C)O)C2)=NC(=O)c2ccc3c(c2)N(C[C@@H]2CC[C@H]21)C[C@@]1(CCCc2cc(Cl)ccc21)CO3` [Example 237]: 121 nM.
As for `CO[C@H]1/C=C/CCC[S@@](=O)(NC(=O)CCc2cocn2)=NC(=O)c2ccc3c(c2)N(C[C@@H]2CC[C@H]21)C[C@@]1(CCCc2cc(Cl)ccc21)CO3` [Example 57], in assay [1] (Homo sapiens, SK-BR-3, 72 h), the half-maximal effective concentration (EC50) was 596 nM. The IC50 in assay [2] was found to be 0.2 nM.
Regarding `CCOC1CN(C(=O)N[S@@]2(=O)=NC(=O)c3ccc4c(c3)N(C[C@@H]3CC[C@H]3[C@@H](OC)/C=C/C[C@H](C)C2)C[C@@]2(CCCc3cc(Cl)ccc32)CO4)C1` [Example 235], the EC50 in assay [1] (72 hours) was determined as 39.8 nM.
Turning to `COc1nn(C)cc1C(=O)N[S@@]1(=O)=NC(=O)c2ccc3c(c2)N(C[C@@H]2CC[C@H]2[C@@H](OC)/C=C/[C@H](OC(=O)c2cn(C)nc2OC)CC1)C[C@@]1(CCCc2cc(Cl)ccc21)CO3` [Example 391], the EC50 in assay [1] (Homo sapiens, SK-BR-3, 72 h) amounted to 4560 nM. Besides, the IC50 in assay [2] came to 0.702 nM.
Regarding `COc1nn(C)cc1C(=O)N[S@@]1(=O)=NC(=O)c2ccc3c(c2)N(C[C@@H]2CC[C@H]2[C@@H](OC(=O)CC(C)C)/C=C/C[C@H](C)C1)C[C@@]1(CCCc2cc(Cl)ccc21)CO3` [Example 381], the EC50 in assay [1] (72 hours) was 534 nM.
As for `CO[C@H]1/C=C/CCC[S@@](=O)(NC(=O)CCc2ccnn2C)=NC(=O)c2ccc3c(c2)N(C[C@@H]2CC[C@H]21)C[C@@]1(CCCc2cc(Cl)ccc21)CO3` [Example 22], the EC50 in assay [1] (Homo sapiens, SK-BR-3, 72 h) came to 259 nM.
Regarding `CO[C@H]1/C=C/CCC[S@@](=O)(NC(=O)COc2ccnn2C)=NC(=O)c2ccc3c(c2)N(C[C@@H]2CC[C@H]21)C[C@@]1(CCCc2cc(Cl)ccc21)CO3` [Example 100], the EC50 in assay [1] (72 hours) turned out to be 2260 nM.
With `CCc1nn(C)cc1C(=O)N[S@@]1(=O)=NC(=O)c2ccc3c(c2)N(C[C@@H]2CC[C@H]2[C@@H](OC)/C=C/C[C@H](C)[C@H]1C)C[C@@]1(CCCc2cc(Cl)ccc21)CO3` [Example 188], in assay [1] (Homo sapiens, SK-BR-3, 72 h), the EC50 was 78.3 nM. In addition, the IC50 in assay [2] is 0.069 nM.
Taken in the same sequence, the figures for `CO[C@H]1/C=C/C[C@H](C)C[S@@](=O)(NC(=O)NC2CC2)=NC(=O)c2ccc3c(c2)N(C[C@@H]2CC[C@H]21)C[C@@]1(CCCc2cc(Cl)ccc21)CO3` [Example 170] were 210 nM and 0.06 nM.
In the case of `CO[C@H]1/C=C/CCC[S@@](=O)(NC(=O)CCCC(F)(F)F)=NC(=O)c2ccc3c(c2)N(C[C@@H]2CC[C@H]21)C[C@@]1(CCCc2cc(Cl)ccc21)CO3` [Example 95], the half-maximal effective concentration (EC50) in assay [1] (72 hours) was 1100 nM.
Still for that read-out and setting: the same measure for `CO[C@H]1/C=C/CCC[S@@](=O)(NC(=O)NC2(C(F)(F)F)CC2)=NC(=O)c2ccc3c(c2)N(C[C@@H]2CC[C@H]21)C[C@@]1(CCCc2cc(Cl)ccc21)CO3` [Example 32]: 1480 nM.
Turning to `CO[C@H]1/C=C/C[C@H](C)C[S@@](=O)(NC(=O)C2CC(OC(F)F)C2)=NC(=O)c2ccc3c(c2)N(C[C@@H]2CC[C@H]21)C[C@@]1(CCCc2cc(Cl)ccc21)CO3` (stereo partly shown) [Example 431], the half-maximal effective concentration (EC50) in assay [1] (72 hours) amounted to 233 nM.
The same measure, in the same setting: for `CO[C@H]1/C=C/CCC[S@@](=O)(NC(=O)CCc2nnc(C)s2)=NC(=O)c2ccc3c(c2)N(C[C@@H]2CC[C@H]21)C[C@@]1(CCCc2cc(Cl)ccc21)CO3` [Example 102] the value was 891 nM.
The same measure, in the same setting: the same measure for `CO[C@H]1/C=C/C[C@H](C)C[S@@](=O)(NC(=O)N2CC(C#N)C2)=NC(=O)c2ccc3c(c2)N(C[C@@H]2CC[C@H]21)C[C@@]1(CCCc2cc(Cl)ccc21)CO3` [Example 233]: 47.2 nM; for `CO[C@H]1/C=C/CCC[S@@](=O)(NC(=O)CCc2c(C)cnn2C)=NC(=O)c2ccc3c(c2)N(C[C@@H]2CC[C@H]21)C[C@@]1(CCCc2cc(Cl)ccc21)CO3` [Example 103]: 10000 nM.
Still for that read-out and setting: the same measure for `CCC1CN(C(=O)N[S@@]2(=O)=NC(=O)c3ccc4c(c3)N(C[C@@H]3CC[C@H]3[C@@H](OC)/C=C/C[C@H](C)C2)C[C@@]2(CCCc3cc(Cl)ccc32)CO4)C1` [Example 242]: 84 nM.
For `CO[C@H]1/C=C/CCC[S@@](=O)(NC(=O)COC2CCOCC2)=NC(=O)c2ccc3c(c2)N(C[C@@H]2CC[C@H]21)C[C@@]1(CCCc2cc(Cl)ccc21)CO3` [Example 105], the EC50 in assay [1] (72 hours) is 351 nM.
The same measure, in the same setting: the same measure for `CO[C@H]1/C=C/CCC[S@@](=O)(NC(=O)CCc2ccccc2)=NC(=O)c2ccc3c(c2)N(C[C@@H]2CC[C@H]21)C[C@@]1(CCCc2cc(Cl)ccc21)CO3` [Example 97]: 788 nM.
Same read-out and setting: for `CO[C@H]1/C=C/CCC[S@@](=O)(NC(=O)CCc2csc(C)n2)=NC(=O)c2ccc3c(c2)N(C[C@@H]2CC[C@H]21)C[C@@]1(CCCc2cc(Cl)ccc21)CO3` [Example 99] the value was 2090 nM; for `CO[C@H]1/C=C/C[C@H](C)C[S@@](=O)(NC(=O)[C@H]2Cc3ccccc3CO2)=NC(=O)c2ccc3c(c2)N(C[C@@H]2CC[C@H]21)C[C@@]1(CCCc2cc(Cl)ccc21)CO3` (single isomer, unassigned) [Example 143], 219 nM.
On the same count and under the same terms, for `COc1nn(C2CC2)cc1C(=O)N[S@@]1(=O)=NC(=O)c2ccc3c(c2)N(C[C@@H]2CC[C@H]2[C@@H](OC)/C=C/C[C@H](C)C1)C[C@@]1(CCCc2cc(Cl)ccc21)CO3` [Example 262] the value was 85.8 nM; for `CO[C@H]1/C=C/C[C@H](C)C[S@@](=O)(NC(=O)N2CC3(CCCO3)C2)=NC(=O)c2ccc3c(c2)N(C[C@@H]2CC[C@H]21)C[C@@]1(CCCc2cc(Cl)ccc21)CO3` [Example 231], 40 nM; for `COC1CCN(C(=O)N[S@@]2(=O)=NC(=O)c3ccc4c(c3)N(C[C@@H]3CC[C@H]3[C@@H](OC)/C=C/C[C@H](C)C2)C[C@@]2(CCCc3cc(Cl)ccc32)CO4)CC1` [Example 320], 36.6 nM.
`CO[C@H]1/C=C/C[C@H](C)C[S@@](=O)(NC(=O)N2CC3(CCO3)C2)=NC(=O)c2ccc3c(c2)N(C[C@@H]2CC[C@H]21)C[C@@]1(CCCc2cc(Cl)ccc21)CO3` [Example 230]: the EC50 in assay [1] (72 hours) turned out to be 47.1 nM.
As for `CO[C@H]1/C=C/CCC[S@@](=O)(NC(=O)CCc2ncsc2C)=NC(=O)c2ccc3c(c2)N(C[C@@H]2CC[C@H]21)C[C@@]1(CCCc2cc(Cl)ccc21)CO3` [Example 101], in assay [1] (72 hours), the EC50 amounted to 2590 nM.
As to `CO[C@H]1/C=C/CCC[S@@](=O)(NC(=O)CCC(F)(F)F)=NC(=O)c2ccc3c(c2)N(C[C@@H]2CC[C@H]21)C[C@@]1(CCCc2cc(Cl)ccc21)CO3` [Example 94], the EC50 in assay [1] (72 hours) was found to be 902 nM.
In the case of `COc1nn(C)cc1C(=O)N[S@@]1(=O)=NC(=O)c2ccc3c(c2)N(C[C@@H]2CC[C@H]2[C@@H](OC(=O)OC(C)C)/C=C/C[C@H](C)C1)C[C@@]1(CCCc2cc(Cl)ccc21)CO3` [Example 384], the EC50 in assay [1] (72 hours) came to 154 nM.
The same measure, in the same setting: for `CO[C@H]1/C=C/CCC[S@@](=O)(NC(=O)COc2ccccc2)=NC(=O)c2ccc3c(c2)N(C[C@@H]2CC[C@H]21)C[C@@]1(CCCc2cc(Cl)ccc21)CO3` [Example 96] the value was 604 nM.
